Test results as given in BindingDB's records for PubMed 39914143 (COMSATS University Islamabad).

Target: T1, Amine oxidase [flavin-containing] B (Homo sapiens, UniProt P27338)
T1 sequence (P27338 whole entry): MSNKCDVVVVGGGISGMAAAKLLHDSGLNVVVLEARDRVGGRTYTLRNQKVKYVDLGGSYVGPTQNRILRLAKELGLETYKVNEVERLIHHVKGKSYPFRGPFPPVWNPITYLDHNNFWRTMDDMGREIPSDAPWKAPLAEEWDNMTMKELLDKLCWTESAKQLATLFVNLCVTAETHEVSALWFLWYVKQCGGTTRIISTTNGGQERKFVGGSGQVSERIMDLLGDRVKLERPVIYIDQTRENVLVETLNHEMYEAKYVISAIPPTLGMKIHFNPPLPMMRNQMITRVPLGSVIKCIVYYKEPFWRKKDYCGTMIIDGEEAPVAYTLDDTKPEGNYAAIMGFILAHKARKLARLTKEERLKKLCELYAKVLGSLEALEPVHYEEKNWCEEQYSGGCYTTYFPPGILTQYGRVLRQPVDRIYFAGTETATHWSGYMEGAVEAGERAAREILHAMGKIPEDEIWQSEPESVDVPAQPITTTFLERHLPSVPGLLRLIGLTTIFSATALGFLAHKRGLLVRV
Experiment: Inhibition of MAO-B (unknown origin)

`CN(C)CCN1CCN(Cc2ccc(C(=O)Nc3nc4ccccc4s3)cc2)CC1` showed an IC50 of 40 nM.
